Experimental data from ChEMBL document CHEMBL4145541, “Tricyclic pyrazolo[1,5-d][1,4]benzoxazepin-5(6H)-one scaffold derivatives: Synthesis and biological evaluation as selective BuChE inhibitors” (Eur J Med Chem, 2018).
Active and inactive are the calls of the source. No cut-off for these calls is given here.

Columns and labels:
[1] = Cytotoxicity against rat PC12 cells assessed as cell viability up to 50 uM after 24 hrs by MTT assay relative to control
Acetylcholinesterase = Acetylcholinesterase (Electrophorus electricus, UniProt O42275); experiment: (§1) Inhibition of electric eel AChE at 20 uM using acetylthiocholine iodide as substrate preincubated for 20 mins followed by substrate addition and measured after 20 mins by Ellman's method relative to control; details: 20 min, 20 µM
Chain of Acetylcholinesterase (O42275 whole entry): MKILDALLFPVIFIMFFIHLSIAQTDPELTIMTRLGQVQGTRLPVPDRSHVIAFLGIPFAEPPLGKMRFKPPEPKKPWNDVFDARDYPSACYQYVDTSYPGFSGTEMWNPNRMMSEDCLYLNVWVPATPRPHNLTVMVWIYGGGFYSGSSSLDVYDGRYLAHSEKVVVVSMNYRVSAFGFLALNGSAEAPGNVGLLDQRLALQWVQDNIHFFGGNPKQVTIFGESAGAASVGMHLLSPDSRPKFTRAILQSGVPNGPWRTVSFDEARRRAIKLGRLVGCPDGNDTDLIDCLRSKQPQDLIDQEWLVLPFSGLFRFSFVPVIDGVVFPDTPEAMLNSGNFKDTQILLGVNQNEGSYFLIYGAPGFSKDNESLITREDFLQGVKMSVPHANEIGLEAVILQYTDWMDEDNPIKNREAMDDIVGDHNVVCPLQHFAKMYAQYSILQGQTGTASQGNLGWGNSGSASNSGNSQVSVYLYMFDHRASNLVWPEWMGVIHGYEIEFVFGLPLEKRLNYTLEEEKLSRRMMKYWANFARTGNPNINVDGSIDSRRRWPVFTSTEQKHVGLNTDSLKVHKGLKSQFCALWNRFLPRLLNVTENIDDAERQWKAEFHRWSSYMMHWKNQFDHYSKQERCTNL

[2] = target: Cholinesterase (Equus caballus) (UniProt P81908); experiment: Inhibition of equine serum BuChE at 20 uM using butyrylthiocholine iodide as substrate preincubated for 20 mins followed by substrate addition and measured after 20 mins by Ellman's method relative to control
Chain of Cholinesterase (Equus caballus) (P81908 whole entry): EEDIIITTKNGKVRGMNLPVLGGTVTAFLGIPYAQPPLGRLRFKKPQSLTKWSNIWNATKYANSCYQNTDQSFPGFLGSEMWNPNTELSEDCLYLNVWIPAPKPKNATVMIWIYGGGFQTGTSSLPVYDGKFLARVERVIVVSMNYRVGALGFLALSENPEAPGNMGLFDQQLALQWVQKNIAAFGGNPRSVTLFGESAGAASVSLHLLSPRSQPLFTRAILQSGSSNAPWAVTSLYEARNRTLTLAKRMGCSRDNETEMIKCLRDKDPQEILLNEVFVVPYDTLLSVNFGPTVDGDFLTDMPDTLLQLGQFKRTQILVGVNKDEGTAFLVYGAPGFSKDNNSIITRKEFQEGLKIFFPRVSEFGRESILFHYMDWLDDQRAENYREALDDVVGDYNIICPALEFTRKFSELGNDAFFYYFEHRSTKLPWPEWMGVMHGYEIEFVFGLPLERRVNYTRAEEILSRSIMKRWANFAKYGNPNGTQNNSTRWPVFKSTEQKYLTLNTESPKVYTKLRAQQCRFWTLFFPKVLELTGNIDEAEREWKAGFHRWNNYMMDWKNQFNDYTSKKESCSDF

[3] = target: acetylcholinesterase (AChE) (Electrophorus electricus, UniProt O42275); experiment: as §1; details: electric eel acetylcholinesterase enzyme, probe acetylthiocholine iodide
Chain of acetylcholinesterase (AChE) (O42275 whole entry): as the sequence (O42275 whole entry) above

Cholinesterase [4] = target: T1, Cholinesterase (Equus caballus, UniProt P81908); experiment: Inhibition of equine serum BuChE using butyrylthiocholine iodide as substrate preincubated for 20 mins followed by substrate addition and measured after 20 mins by Ellman's method
T1 sequence (P81908 whole entry): as the sequence (P81908 whole entry) above

[5] = Octanol-water partition coefficient, log P of the compound at pH 7.4 after 24 hrs by shake flask method; type: physicochemical
PC-12 = experiment: Neuroprotection against H2O2-induced oxidative stress in rat PC12 cells assessed as cell viability at 25 uM preincubated for 3 hrs followed by H2O2 addition and measured after 24 hrs by MTT assay relative to control; type: functional; details: read-out: Activity
Cholinesterase [6] = target: T1, Cholinesterase; experiment: Non-competitive inhibition of equine serum BuChE using varying levels of butyrylthiocholine iodide as substrate preincubated for 20 mins followed by substrate addition and measured after 20 mins by Lineweaver-Burk plot analysis; details: read-out: Ki(app)
Cholinesterase [7] = target: T1, Cholinesterase; experiment: Mixed-type inhibition of equine serum BuChE using varying levels of butyrylthiocholine iodide as substrate preincubated for 20 mins followed by substrate addition and measured after 20 mins by Lineweaver-Burk plot analysis; details: read-out: Ki(app)

In the case of `COc1cc2c(cc1OC)C(=O)C(CC1CCN(Cc3ccccc3)CC1)C2` (centres undefined) [DONEPEZIL], the viability at 24 h ([1]; pc-12) is reported as > 90%.

With `CC1Oc2ccc(Cl)cc2C2CC(c3ccc(F)cc3)=NN2C1=O` (centres undefined) the “inhibition (INH)” value (Acetylcholinesterase) was “Not Active” and the inhibition [2] was 17%.

`CC1Oc2c(Cl)cc(Cl)cc2C2CC(c3ccco3)=NN2C1=O` (centres undefined) showed an inhibition at 20 min, 20 µM [3] of 28% and an inhibition [2] of 23%.

With `CC1Oc2c(Br)cc(Br)cc2C2CC(c3ccc(F)cc3)=NN2C1=O` (centres undefined) the “inhibition (INH)” value (Acetylcholinesterase) was “Not Active” and the inhibition [2] was “inactive”.

Work on `CC1=NN2C(=O)C(C)Oc3ccc(Br)cc3C2C1` (centres undefined) yielded an inhibition at 20 min, 20 µM [3] of 23% and an inhibition [2] of 18%.

Molecule `CC1=NN2C(=O)COc3c(Br)cc(Cl)cc3C2C1` (centres undefined) has an inhibition at 20 min, 20 µM [3] of 32% and an inhibition [2] of 18%.

In the case of `CC1=NN2C(=O)COc3c(Br)cc(Br)cc3C2C1` (centres undefined), the “inhibition (INH)” value (Acetylcholinesterase) is reported as “Not Active” and the inhibition [2] is reported as 24%.

For `CCC1Oc2c(Cl)cc(Cl)cc2C2CC(C)=NN2C1=O` (centres undefined), the IC50 (Cholinesterase [4]) was 4.67 µM, the inhibition at 20 min, 20 µM [3] was 26% and the logD at 24 h [5] was 1.12.

With `CCC1Oc2c(Br)cc(Cl)cc2C2CC(C)=NN2C1=O` (centres undefined) the viability at 25 µM (PC-12) was 70%, the IC50 (Cholinesterase [4]) was 2.04 µM and the “inhibition (INH)” value (Acetylcholinesterase) was “Not Active”. For the same molecule, the viability at 24 h ([1]; PC12 cells) was > 90%, the Ki (Cholinesterase [6]) was 1.5 µM and the logD at 24 h [5] was 1.57.

With `CC1=NN2C(=O)COc3ccc(C)cc3C2C1` (centres undefined) the inhibition at 20 min, 20 µM [3] was 24% and the inhibition [2] was “inactive”.

In the case of `CC1=NN2C(=O)C(C)Oc3c(Br)cc(Cl)cc3C2C1` (centres undefined), the IC50 (Cholinesterase [4]) is reported as 11.1 µM, the “inhibition (INH)” value (Acetylcholinesterase) is reported as “Not Active” and the logD at 24 h [5] is reported as 2.18.

For `CC1=NN2C(=O)COc3ccc(Cl)cc3C2C1` (centres undefined), the inhibition at 20 min, 20 µM [3] was 2% and the inhibition [2] was “inactive”.

In the case of `CC[C@@H]1Oc2c(Br)cc(Cl)cc2C2CC(C)=NN2C1=O` (some centres undefined), the IC50 (Cholinesterase [4]) is reported as 20.4 µM and the “inhibition (INH)” value (Acetylcholinesterase) is reported as “Not Active”.

In the case of `CCC1Oc2ccc(Cl)cc2C2CC(C)=NN2C1=O` (centres undefined), the IC50 (Cholinesterase [4]) is reported as 12.8 µM, the “inhibition (INH)” value (Acetylcholinesterase) is reported as “Not Active” and the logD at 24 h [5] is reported as 1.05.

In the case of `CCC1Oc2ccc(Br)cc2C2CC(C)=NN2C1=O` (centres undefined), the “inhibition (INH)” value (Acetylcholinesterase) is reported as “Not Active”, the inhibition [2] is reported as 39% and the logD at 24 h [5] is reported as 1.11.

`CC1=NN2C(=O)C(C)Oc3c(Cl)cc(Cl)cc3C2C1` (centres undefined) showed an IC50 (Cholinesterase [4]) of 5.95 µM, an inhibition at 20 min, 20 µM [3] of 22% and a logD at 24 h [5] of 2.49.

For `COc1cccc2c1OCC(=O)N1N=C(C)CC21` (centres undefined), the inhibition at 20 min, 20 µM [3] was 34% and the inhibition [2] was 2%.

`CC1=NN2C(=O)COc3c(Cl)cc(Cl)cc3C2C1` (centres undefined) gave an inhibition at 20 min, 20 µM [3] of 25% and an inhibition [2] of 31%.

For `CC[C@H]1Oc2c(Br)cc(Cl)cc2C2CC(C)=NN2C1=O` (some centres undefined), the IC50 (Cholinesterase [4]) was 1.14 µM and the “inhibition (INH)” value (Acetylcholinesterase) was “Not Active”.

With `CC1Oc2ccc(Br)cc2C2CC(c3ccc(F)cc3)=NN2C1=O` (centres undefined) the “inhibition (INH)” value (Acetylcholinesterase) was “Not Active” and the inhibition [2] was 45%.

`O=C1COc2ccc(Br)cc2C2CC(c3ccco3)=NN12` (centres undefined) gave an inhibition at 20 min, 20 µM [3] of 25% and an inhibition [2] of 20%.

With `CC1=NN2C(=O)C(C)Oc3ccc(Cl)cc3C2C1` (centres undefined) the “inhibition (INH)” value (Acetylcholinesterase) was “Not Active” and the inhibition [2] was 39%.

Molecule `CCC1Oc2c(Br)cc(Br)cc2C2CC(C)=NN2C1=O` (centres undefined) has an IC50 (Cholinesterase [4]) of 2.92 µM, an inhibition at 20 min, 20 µM [3] of 41% and a Ki (Cholinesterase [7]) of 7.6 µM. It also gave a logD at 24 h [5] of 1.08.

Molecule `CC1=NN2C(=O)C(C)Oc3ccc(C)cc3C2C1` (centres undefined) has an inhibition at 20 min, 20 µM [3] of 22% and an inhibition [2] of 1%.

For `CC1=NN2C(=O)C(C)Oc3c(Br)cc(Br)cc3C2C1` (centres undefined), the “inhibition (INH)” value (Acetylcholinesterase) was “Not Active” and the inhibition [2] was 11%.

With `COc1cccc2c1OC(C)C(=O)N1N=C(C)CC21` (centres undefined) the inhibition at 20 min, 20 µM [3] was 24% and the inhibition [2] was “inactive”.

For `CC1=NN2C(=O)COc3ccc(Br)cc3C2C1` (centres undefined), the inhibition at 20 min, 20 µM [3] was 29% and the inhibition [2] was “inactive”.
